Key:
Assay type in all cases: in vivo
[1] = tested on: AMARE: redroot pigwseed (Amaranthus retroflexus); test: Post-emergent Test I herbicidal activity; conditions: post-emergence, read-out: Visual Growth Reduction (%), AMARE
Procedure: (§1) Post-emergent Test I Seeds test species were obtained from commercial suppliers and planted into a 13 cm diameter-round pot containing soil-less media mix (metro-mix 360®, Sun Gro Horticulture). Postemergence treatments were planted 8-12 days prior to application and cultured in a greenhouse equipped with supplemental light sources to provide a 16 h photoperiod at 24-29° C. All pots were surface irrigated.
(§2) A weighted amount, determined by the highest rate to be tested, of each compound was dissolved in 1.3 mL acetone-DMSO (97:3, v/v) and diluted with 4.1 mL water-isopropanol-crop oil concentrate (78:20:2, v/v/v) containing 0.02% Triton X-155 to obtain concentrated stock solutions. Additional application rates were obtained by serial dilution of the high rate solution into a solution containing appropriate volume of 97:3 v/v mixture of acetone and DMSO and appropriate volume of an aqueous mixture of water, isopropyl alcohol, crop oil concentrate (78:20:2, v/v/v) containing 0.02% Triton X-155.
(§3) Formulated compounds were applied using a DeVilbiss® compressed air sprayer at 2-4 psi. Following treatment, pots were returned to the greenhouse for the duration of the experiment. All pots were sub-irrigated as need to provide optimum growing conditions. All pots were fertilized one time per week by subirrigating with Peters Peat-Lite Special® fertilizer (20-10-20).
(§4) […] All evaluations were made visually on a scale of 0 to 100 where 0 represents no activity and 100 represents complete plant death. Visual assessments of plant injury were made based on growth reduction, discoloration, leaf deformity and necrosis.

[2] = tested on: AVEFA: wild oats (Avena fatua); test: Post-emergent Test I herbicidal activity; conditions: post-emergence, 336 h, read-out: Visual Growth Reduction (%) 14 Days After Application, AVEFA
Procedure: as §1, §2, §3, §4

[3] = tested on: ECHCG: barnyardgrass (Echinochloa crus-galli); test: Post-emergent Test I herbicidal activity; conditions: post-emergence, 336 h, read-out: Visual Growth Reduction (%) 14 Days After Application, ECHCG
Procedure: as §1, §2, §3, §4

[4] = tested on: HELAN: sunflower (Helianthus annuus); test: Post-emergent Test I herbicidal activity; conditions: post-emergence, 336 h, read-out: Visual Growth Reduction (%) 14 Days After Application, HELAN
Procedure: as §1, §2, §3, §4

[5] = tested on: IPOHE: ivyleaf morningglory (Ipomoea hederecea); test: Post-emergent Test I herbicidal activity; conditions: post-emergence, 336 h, read-out: Visual Growth Reduction (%) 14 Days After Application, IPOHE
Procedure: as §1, §2, §3, §4

[6] = tested on: SETFA: giant foxtail (Setaria faberi); test: Post-emergent Test I herbicidal activity; conditions: post-emergence, 336 h, read-out: Visual Growth Reduction (%) 14 Days After Application, SETFA
Procedure: as §1, §2, §3, §4

[7] = tested on: AMARE: redroot pigwseed (Amaranthus retroflexus); test: Pre-emergent Test I herbicidal activity; conditions: pre-emergence, 336 h, read-out: Visual Growth Reduction (%) 14 Days After Application, AMARE
Procedure: (§5) Pre-emergent Test I Seeds of test species were planted into round plastic pots (5-inch diameter) containing sandy loam soil. After planting, all pots were sub-irrigated 16 h prior to compound application. Compounds were dissolved in a 97:3 v/v (volume/volume) mixture of acetone and dimethyl sulfoxide (DMSO) and diluted to the appropriate concentration in a final application solution containing water, acetone, isopropanol, DMSO and Agri-dex (crop oil concentrate) in a 59:23:15:1.0:1.5 v/v ratio and 0.02% w/v (weight/volume) of Triton X-155 to obtain the spray solution containing the highest application rate. Additional application rates were obtained by serial dilution of the high rate solution with the above application solution. Formulated compound (2.7 mL) was applied pipetted evenly over the soil surface followed by incorporation with water (15 mL). Following treatment, pots were returned to the greenhouse for the duration of the experiment. The greenhouse was programmed for an approximate 15 h photoperiod which was maintained at about 23-29° C. during the day and 22-28° C. during the night. Nutrients and water were added on a regular basis through surface irrigation and supplemental lighting was provided with overhead metal halide 1000-Watt lamps as necessary. Herbicidal effect ratings were obtained 14 days after treatment. All evaluations were made relative to appropriate controls on a scale of 0 to 100 where 0 represents no herbicidal effect and 100 represents plant death or lack of emergence from the soil.

[8] = tested on: AVEFA: wild oats (Avena fatua); test: Pre-emergent Test I herbicidal activity; conditions: pre-emergence, 336 h, read-out: Visual Growth Reduction (%) 14 Days After Application, AVEFA
Procedure: as §5

[9] = tested on: ECHCG: barnyardgrass (Echinochloa crus-galli); test: Pre-emergent Test I herbicidal activity; conditions: pre-emergence, 336 h, read-out: Visual Growth Reduction (%) 14 Days After Application, ECHCG
Procedure: as §5

[10] = tested on: HELAN: sunflower (Helianthus annuus); test: Pre-emergent Test I herbicidal activity; conditions: pre-emergence, 336 h, read-out: Visual Growth Reduction (%) 14 Days After Application, HELAN
Procedure: as §5

[11] = tested on: IPOHE: ivyleaf morningglory (Ipomoea hederecea); test: Pre-emergent Test I herbicidal activity; conditions: pre-emergence, 336 h, read-out: Visual Growth Reduction (%) 14 Days After Application, IPOHE
Procedure: as §5

[12] = tested on: SETFA: giant foxtail (Setaria faberi); test: Pre-emergent Test I herbicidal activity; conditions: pre-emergence, 336 h, read-out: Visual Growth Reduction (%) 14 Days After Application, SETFA
Procedure: as §5

COC(=O)c1nc(-c2ccc(C#N)cc2F)cc(N)c1Cl [Compound 16]
pest or weed control at 3840 g/ha ([1]; 3.84 kg ai/ha): 95 to 100% | pest or weed control at 3840 g/ha ([2]; 3.84 kg ai/ha): 0 to 29% | pest or weed control at 3840 g/ha ([3]; 3.84 kg ai/ha): 45 to 59% | pest or weed control at 3840 g/ha ([4]; 3.84 kg ai/ha): 95 to 100% | pest or weed control at 3840 g/ha ([5]; 3.84 kg ai/ha): 95 to 100% | pest or weed control at 3840 g/ha ([6]; 3.84 kg ai/ha): 60 to 74% | pest or weed control at 3840 g/ha ([7]; 3.84 kg ai/ha): 95 to 100% | pest or weed control at 3840 g/ha ([8]; 3.84 kg ai/ha): 30 to 44% | pest or weed control at 3840 g/ha ([9]; 3.84 kg ai/ha): 30 to 44% | pest or weed control at 3840 g/ha ([10]; 3.84 kg ai/ha): 95 to 100% | pest or weed control at 3840 g/ha ([11]; 3.84 kg ai/ha): 95 to 100% | pest or weed control at 3840 g/ha ([12]; 3.84 kg ai/ha): 0 to 29%

Nc1c(F)c(-c2ccc(I)cc2)nc(C(=O)O)c1Cl [Compound 45, 4-amino-3-chloro-5-fluoro-6-(4-iodophenyl)picolinic acid]
pest or weed control at 3960 g/ha ([1]; 3.96 kg ai/ha): 95 to 100% | pest or weed control at 3960 g/ha ([2]; 3.96 kg ai/ha): 95 to 100% | pest or weed control at 3960 g/ha ([3]; 3.96 kg ai/ha): 95 to 100% | pest or weed control at 3960 g/ha ([4]; 3.96 kg ai/ha): 95 to 100% | pest or weed control at 3960 g/ha ([5]; 3.96 kg ai/ha): 85 to 94% | pest or weed control at 3960 g/ha ([6]; 3.96 kg ai/ha): 95 to 100% | pest or weed control at 3960 g/ha ([7]; 3.96 kg ai/ha): 95 to 100% | pest or weed control at 3960 g/ha ([8]; 3.96 kg ai/ha): 95 to 100% | pest or weed control at 3960 g/ha ([9]; 3.96 kg ai/ha): 95 to 100% | pest or weed control at 3960 g/ha ([10]; 3.96 kg ai/ha): 95 to 100% | pest or weed control at 3960 g/ha ([11]; 3.96 kg ai/ha): 95 to 100% | pest or weed control at 3960 g/ha ([12]; 3.96 kg ai/ha): 95 to 100%

Nc1c(F)c(-c2ccc(OC(F)F)cc2)nc(C(=O)O)c1Cl [Compound 143]
pest or weed control at 4000 g/ha ([1]; 4 kg ai/ha): 95 to 100% | pest or weed control at 4000 g/ha ([3]; 4 kg ai/ha): 95 to 100% | pest or weed control at 4000 g/ha ([4]; 4 kg ai/ha): 95 to 100% | pest or weed control at 4000 g/ha ([5]; 4 kg ai/ha): 45 to 59% | pest or weed control at 4000 g/ha ([6]; 4 kg ai/ha): 95 to 100% | pest or weed control at 4000 g/ha ([7]; 4 kg ai/ha): 85 to 94% | pest or weed control at 4000 g/ha ([8]; 4 kg ai/ha): 60 to 74% | pest or weed control at 4000 g/ha ([9]; 4 kg ai/ha): 85 to 94% | pest or weed control at 4000 g/ha ([10]; 4 kg ai/ha): 95 to 100% | pest or weed control at 4000 g/ha ([11]; 4 kg ai/ha): 85 to 94% | pest or weed control at 4000 g/ha ([12]; 4 kg ai/ha): 95 to 100%

COC(=O)c1nc(-c2ccccc2)c(F)c(N)c1Cl [Compound 181]
pest or weed control at 1760 g/ha ([1]; 1.76 kg ai/ha): 95 to 100% | pest or weed control at 1760 g/ha ([2]; 1.76 kg ai/ha): 0 to 29% | pest or weed control at 1760 g/ha ([3]; 1.76 kg ai/ha): 0 to 29% | pest or weed control at 1760 g/ha ([4]; 1.76 kg ai/ha): 95 to 100% | pest or weed control at 1760 g/ha ([5]; 1.76 kg ai/ha): 75 to 84% | pest or weed control at 1760 g/ha ([6]; 1.76 kg ai/ha): 0 to 29% | pest or weed control at 1760 g/ha ([7]; 1.76 kg ai/ha): 95 to 100% | pest or weed control at 1760 g/ha ([8]; 1.76 kg ai/ha): 0 to 29% | pest or weed control at 1760 g/ha ([10]; 1.76 kg ai/ha): 85 to 94% | pest or weed control at 1760 g/ha ([11]; 1.76 kg ai/ha): 85 to 94% | pest or weed control at 1760 g/ha ([12]; 1.76 kg ai/ha): 75 to 84%
